From the Deep4Chem optical property database
“And” between values parts separate entries of the source, which are not always exact repeats. Identical values can stand only once. Each block holds one molecule with its values, some of them ahead of it.

Assay: photoluminescence quantum yield (fraction); solvent given as SMILES
[1] = in O=P(c1ccccc1)(c1ccccc1)c1ccccc1Oc1ccccc1P(=O)(c1ccccc1)c1ccccc1

Compound: CCN1c2ccc(/C=N/Nc3ccccn3)cc2Sc2cc(-c3cccc4ccccc34)ccc21
photoluminescence quantum yield (in C1CCOC1): 0.2
photoluminescence quantum yield (in CS(C)=O): 0.35
photoluminescence quantum yield (in Cc1ccccc1): 0.1
photoluminescence quantum yield (in ClCCl): 0.3

Compound: CCN1c2ccc(/C=N/Nc3ccccn3)cc2Sc2cc(-c3ccccc3)ccc21
photoluminescence quantum yield (in C1CCOC1): 0.26
photoluminescence quantum yield (in CS(C)=O): 0.37
photoluminescence quantum yield (in Cc1ccccc1): 0.17
photoluminescence quantum yield (in ClCCl): 0.27

Compound: COc1cccc(/C=C/c2ccccc2)c1
photoluminescence quantum yield (in C1CCCCC1): 0.18
photoluminescence quantum yield (in CC#N): 0.16
photoluminescence quantum yield (in CC(C)O): 0.15
photoluminescence quantum yield (in CCCCOCCCC): 0.2
photoluminescence quantum yield (in CCOC(C)=O): 0.18
photoluminescence quantum yield (in CCOCC): 0.18

Compound: Cc1cc(C)c(C2=C3C=C(c4ccccc4)C(c4ccccc4)=[N+]3[B-](F)(F)n3c2cc(-c2ccccc2)c3-c2ccccc2)c(C)c1
photoluminescence quantum yield (in C1CCCCC1): 0.94
photoluminescence quantum yield (in C1CCOC1): 0.9
photoluminescence quantum yield (in CC#N): 0.87
photoluminescence quantum yield (in Cc1ccccc1): 0.75
photoluminescence quantum yield (in ClCCl): 0.74

Compound: Cc1cc(C)c(B(c2c(C)cc(C)cc2C)c2c(C)cc(-n3c4ccc(N(c5ccccc5)c5ccccc5)cc4c4cc(N(c5ccccc5)c5ccccc5)ccc43)cc2C)c(C)c1
photoluminescence quantum yield (in Cc1ccccc1): 0.84
photoluminescence quantum yield [1]: 1

Compound: CCCC1(CCC)c2cc(C#N)ccc2-c2ccc(C#N)cc21
photoluminescence quantum yield (in C1CCCCC1): 0.32

Compound: CC(C)(C)c1ccc(C(C)(C)C)c(N2C(=O)c3cccc4c(-c5ccc(-c6ccc(N(c7ccccc7)c7ccccc7)cc6)s5)ccc(c34)C2=O)c1
photoluminescence quantum yield (in Cc1ccccc1): 0.56

Compound: COc1ccc(-c2cc(C)nc(-c3ccc(-n4c5ccccc5c5ccccc54)cc3)n2)cc1
photoluminescence quantum yield (in C1CCOC1): 0.47
photoluminescence quantum yield (in CN(C)C=O): 0.66
photoluminescence quantum yield (in Cc1ccccc1): 0.34
photoluminescence quantum yield (in ClC(Cl)Cl): 0.68

Compound: COc1cc(/C=C/c2nc3ccccc3s2)c(OC)cc1/C=C/c1ccncc1
photoluminescence quantum yield (in C1CCOC1): 0.75
photoluminescence quantum yield (in CC#N): 0.5
photoluminescence quantum yield (in CN(C)C=O): 0.67
photoluminescence quantum yield (in Cc1ccccc1): 0.86

Compound: CN(C)c1ccc(C#Cc2cc3ccc4cc(C#Cc5ccc(N(C)C)cc5)cc5ccc(c2)c3c45)cc1
photoluminescence quantum yield (in Cc1ccccc1): 0.39

Compound: Cc1cc(C)c(B(c2ccc(-c3ccc4ccc5cccc6ccc3c4c56)cc2)c2c(C)cc(C)cc2C)c(C)c1
photoluminescence quantum yield (in Cc1ccccc1): 0.61

Compound: Cc1cc(C)c(B(c2ccc(-c3ccc(-c4nc5c6ccccc6c6ccccc6c5[nH]4)cc3)cc2)c2c(C)cc(C)cc2C)c(C)c1
photoluminescence quantum yield (in C1CCOC1): 0.74
photoluminescence quantum yield (in CC(C)=O): 0.56
photoluminescence quantum yield (in CS(C)=O): 0.49
photoluminescence quantum yield (in Cc1ccccc1): 0.68
photoluminescence quantum yield (in ClCCl): 0.59

Compound: CN(C)c1ccc2nc(/C=C/c3cc4c5c(c3)CCCN5CCC4)c(=O)oc2c1
photoluminescence quantum yield (in C1CCCCC1): 0.37
photoluminescence quantum yield (in C1COCCO1): 0.56
photoluminescence quantum yield (in CC#N): 0.023
photoluminescence quantum yield (in CC(C)=O): 0.08
photoluminescence quantum yield (in CCCCCCC): 0.32
photoluminescence quantum yield (in CCO): 0.008
photoluminescence quantum yield (in CCOC(C)=O): 0.39
photoluminescence quantum yield (in CN(C)C=O): 0.036
photoluminescence quantum yield (in CS(C)=O): 0.03
photoluminescence quantum yield (in Cc1ccccc1): 0.55
photoluminescence quantum yield (in ClC(Cl)Cl): 0.2
photoluminescence quantum yield (in ClCCl): 0.19

Compound: C(S/C=C/c1ccc(/C=C/SC=C2CCCC2)cc1)=C1CCCC1
photoluminescence quantum yield (in ClCCl): 0.021

Compound: Cc1ccc(N(c2ccc(C)cc2)c2ccc3c(c2)c2cc(N(c4ccc(C)cc4)c4ccc(C)cc4)ccc2n3-c2ccc(-c3nc4cccc5c4n3-c3ccccc3C5(C)C)cc2)cc1
photoluminescence quantum yield (in Cc1ccccc1): 0.85
photoluminescence quantum yield [1]: 0.45

Compound: CCCCCCCCN(CCCCCCCC)c1ccc(/C=C/c2ccc(C#Cc3ccc(-c4ccc(C#Cc5ccc(/C=C/c6ccc(N(CCCCCCCC)CCCCCCCC)cc6)cc5)cc4)cc3)cc2)cc1
photoluminescence quantum yield (in Cc1ccccc1): 0.5

Compound: CC(C)(C(=O)c1ccc(N2c3ccccc3C(C)(C)c3ccccc32)cc1)C(=O)c1ccc(N2c3ccccc3C(C)(C)c3ccccc32)cc1
photoluminescence quantum yield (in c1ccc2c(c1)c1ccccc1n2-c1ccc(-c2ccc(-n3c4ccccc4c4ccccc43)cc2)cc1): 0.64

Compound: Nc1cc(N)cc(-c2nc3ccccc3s2)c1
photoluminescence quantum yield (in C1CCCCC1): 0.102
photoluminescence quantum yield (in C1COCCO1): 0.06
photoluminescence quantum yield (in CC#N): 0.05
photoluminescence quantum yield (in CC(C)O): 0.055
photoluminescence quantum yield (in CCOC(C)=O): 0.053
photoluminescence quantum yield (in CCOCC): 0.061
photoluminescence quantum yield (in CO): 0.015
photoluminescence quantum yield (in O): 0.0091

Compound: c1ccc(-c2ccc(-c3ccc(-n4c5ccccc5c5ccccc54)cc3)c3nsnc23)cc1
photoluminescence quantum yield (in C1CCOC1): 0.426
photoluminescence quantum yield (in CC(C)=O): 0.059
photoluminescence quantum yield (in CCCCCC): 0.697
photoluminescence quantum yield (in CCOCC): 0.599

Compound: Cc1cn(C)c(=O)nc1-n1cncn1
photoluminescence quantum yield (in O): 0.071

Compound: Cc1ccc(C2=[N+]3C(=Cc4ccc(C)n4[B-]3(F)F)c3ccccc32)[nH]1
photoluminescence quantum yield (in C1CCOC1): 0.81
photoluminescence quantum yield (in CC#N): 0.8
photoluminescence quantum yield (in CCCCCC): 0.83
photoluminescence quantum yield (in CO): 0.83
photoluminescence quantum yield (in Cc1ccccc1): 0.78
photoluminescence quantum yield (in ClCCl): 0.79

Compound: CN(C)c1ccc(C(=O)Nc2ccccc2)cc1
photoluminescence quantum yield (in C1CCCCC1): 0.0011
photoluminescence quantum yield (in C1CCOC1): 0.0061
photoluminescence quantum yield (in CC#N): 0.0107
photoluminescence quantum yield (in CCOCC): 0.0036

Compound: O=Cc1ccc(C2=C3C=c4c(oc5ccccc45)=[N+]3[B-](F)(F)n3c2cc2c4ccccc4oc23)cc1
photoluminescence quantum yield (in C1CCCCC1): 0.63
photoluminescence quantum yield (in C1CCOC1): 0.42
photoluminescence quantum yield (in CC#N): 0.37
photoluminescence quantum yield (in CCOC(C)=O): 0.39
photoluminescence quantum yield (in CN(C)C=O): 0.45
photoluminescence quantum yield (in CO): 0.44
photoluminescence quantum yield (in Cc1ccccc1): 0.53
photoluminescence quantum yield (in ClCCl): 0.5

Compound: CC(C)[Si](C#Cc1ccc2c(C#C[Si](C(C)C)(C(C)C)C(C)C)cc3c4cc(C#C[Si](C(C)C)(C(C)C)C(C)C)ccc4c(C#C[Si](C(C)C)(C(C)C)C(C)C)cc3c2c1)(C(C)C)C(C)C
photoluminescence quantum yield (in ClCCl): 0.741

Compound: C(#Cc1cc2ccc3cc(C#Cc4ccccc4)cc4ccc(c1)c2c34)c1ccccc1
photoluminescence quantum yield (in Cc1ccccc1): 0.29

Compound: CCCCCCCCCCCCn1cccc1/C=C/c1ccc(OCCCC)c2c(/C=C/c3cccn3CCCCCCCCCCCC)ccc(OCCCC)c12
photoluminescence quantum yield (in Cc1ccccc1): 0.35

Next, values leading:

photoluminescence quantum yield (in CC#N): 0.51
photoluminescence quantum yield (in CO): 0.25
photoluminescence quantum yield (in ClCCl): 0.62
Compound: Cc1ccc(O)c(-c2[nH]c(=O)n3c2-c2ccccc2C3=O)c1

photoluminescence quantum yield (in ClCCl): 0.1
Compound: COc1ccc(/C=C/c2cc(/C=C/c3ccc(OC)cc3)nc(/C=C/c3ccc(N(c4ccccc4)c4ccccc4)cc3)n2)cc1

photoluminescence quantum yield (in C1CCOC1): 0.042
Compound: CN(C)c1ccc(C(=Cc2ccc(/C=C/c3ccc(C#N)cc3)cc2)c2ccc(N(C)C)cc2)cc1

photoluminescence quantum yield (in C1CCOC1): 0.164
Compound: CC(C)(C)c1ccc(C2=C(c3ccc(-n4c5ccc(C(C)(C)C)cc5c5cc(C(C)(C)C)ccc54)cc3)S(=O)(=O)c3c2sc(-c2ccc(-n4c5ccc(C(C)(C)C)cc5c5cc(C(C)(C)C)ccc54)cc2)c3-c2ccc(C(C)(C)C)cc2)cc1

photoluminescence quantum yield (in ClC(Cl)Cl): 0.75
Compound: N#CC1=CC(c2ccccc2)=CC(C#N)=P1(c1ccccc1)c1ccccc1

photoluminescence quantum yield (in CCO): 0.634
Compound: Cc1c(C)n2c(COC(=O)c3ccccc3I)c(C)c(=O)n2c1=O

photoluminescence quantum yield (in ClCCl): 0.114
Compound: Cc1cc2c3ccccc3n(C)c2c2c1c1ccccc1n2C

photoluminescence quantum yield (in CC#N): 0.42
photoluminescence quantum yield (in ClCCl): 0.46
Compound: COc1ccc(-c2cc3c(s2)c(-c2ccccc2)cc(=O)n3C)cc1

photoluminescence quantum yield (in ClCCl): 0.018
Compound: COc1ccc(C(=O)c2c(C)c3ccc4cccc5c6cccc7ccc2c(c76)c3c45)cc1

photoluminescence quantum yield (in C1COCCO1): 0.218
Compound: CC(=O)Nc1ccc(C2=C/C(=C\c3ccc(C#N)cc3)C(=O)N2CC(C)C)cc1

photoluminescence quantum yield (in CCO): 0.55
Compound: COC(=O)C(NC(=O)CCNc1cccc2ccccc12)c1ccccc1 (centres undefined)

photoluminescence quantum yield (in ClCCl): 0.23
Compound: COc1ccc(N2c3sc4ccccc4c3Sc3c2sc2ccccc32)cc1

photoluminescence quantum yield (in CCCCCC): 0.55
photoluminescence quantum yield (in CO): 0.67
photoluminescence quantum yield (in ClCCl): 0.61
Compound: CCCCc1cc(CCCC)c2ccc3c(CCCC)cc(CCCC)c4ccc1c2c43

photoluminescence quantum yield (in C1CCCCC1): 0.14
photoluminescence quantum yield (in CC#N): 0.083
photoluminescence quantum yield (in CCO): 0.0081
photoluminescence quantum yield (in c1ccccc1): 0.23
Compound: CN(C)c1ccc2c(c1)-c1ccccc1C2=O

photoluminescence quantum yield (in CC#N): 0.13
photoluminescence quantum yield (in CCCCOCCCC): 0.15
photoluminescence quantum yield (in CO): 0.13
Compound: COc1nc(Nc2cc3ccc4cccc5ccc(c2)c3c45)nc(OC)n1

photoluminescence quantum yield (in ClC(Cl)Cl): 0.75
Compound: Cc1ccc(C2=Cc3ccc4ccccc4[n+]3[B-](F)(F)O2)cc1

photoluminescence quantum yield (in ClCCl): 0.55
Compound: COC(=O)c1ccc(Oc2ccc3c4c(cccc24)C(=O)N(c2c(C(C)C)cccc2C(C)C)C3=O)cc1

photoluminescence quantum yield (in C1CCOC1): 0.29
Compound: O=P1(c2ccccc2)C(c2ccc(C3=Cc4ccccc4P3(=O)c3ccccc3)cc2)=Cc2ccccc21 (centres undefined)

photoluminescence quantum yield (in CC#N): 0.11
photoluminescence quantum yield (in CCCCCC): 0.12
photoluminescence quantum yield (in CCOC(C)=O): 0.11
photoluminescence quantum yield (in CO): 0.14
photoluminescence quantum yield (in ClCCl): 0.2
Compound: COC1=[N+]2C(=C(c3ccccc3)c3ccc(OC)n3[B-]2(F)F)C=C1

photoluminescence quantum yield (in CCCCCC): 0.29
photoluminescence quantum yield (in CCO): 0.3
photoluminescence quantum yield (in CCOC(C)=O): 0.29
photoluminescence quantum yield (in ClCCl): 0.38
Compound: Cc1ccc(C#Cc2ccc3ccc4cccc5ccc2c3c45)cc1

photoluminescence quantum yield (in ClC(Cl)Cl): 0.639
Compound: CN1CCc2cc(C3=Cc4cccc[n+]4[B-](F)(F)O3)ccc21

photoluminescence quantum yield (in ClCCl): 0.25
Compound: CCCCN(CCCC)c1ccc(C#Cc2cc(C#Cc3cc(C(F)(F)F)cc(C(F)(F)F)c3)c(C#Cc3ccc(N(CCCC)CCCC)cc3)cc2C#Cc2cc(C(F)(F)F)cc(C(F)(F)F)c2)cc1

photoluminescence quantum yield (in CN(C)C=O): 0.33
Compound: S=c1[nH]nc(-c2ccc(/C=C/c3ccc(-c4n[nH]c(=S)o4)cc3)cc2)o1

photoluminescence quantum yield (in ClC(Cl)Cl): 0.08 and 0.07
Compound: COc1ccccc1C1=[N+]2C(=C(c3ccc(I)cc3)c3ccc(-c4ccccc4OC)n3[B-]2(F)F)C=C1

photoluminescence quantum yield (in CC#N): 0.044
Compound: c1ccc(-c2pc3ccccc3s2)cc1 (centres undefined)

photoluminescence quantum yield (in ClCCl): 0.43
Compound: Fc1ccc(C#Cc2cc(C#Cc3ccc(F)cc3)c(C#Cc3ccc(F)cc3)c(C#Cc3ccc(F)cc3)c2C#Cc2ccc(F)cc2)cc1

photoluminescence quantum yield (in ClC(Cl)Cl): 0.13
Compound: COc1ccc(-c2nc(-c3ccc(C)cc3)c3ccccn23)cc1

photoluminescence quantum yield (in ClCCl): 0.32
Compound: CCCCNC(=O)c1sc(-c2ccc(-c3cc(-c4ccc(C(C)(C)C)cc4)c(C(=O)NCCCC)s3)s2)cc1-c1ccc(C(C)(C)C)cc1
